Data as given in publication PMC10612255, “Discovery of novel 2,3,4,5-tetrahydrospiro[benzo[c]azepine-1,1’-cyclohexan]-5-ol derivatives as PARP-1 inhibitors” (BMC Chemistry, 2023).
“And” between values parts separate entries of the source, which are not always exact repeats. Identical values can stand only once.

Assays:
A549 = assay: MTT assay, anti-proliferative effect on A549 cells; type: cell-based, human; conditions: Homo sapiens, A549, 72 h, read-out: IC50 A549
Experimental: (§1) A549, OVCAR-3, HCT-116, and MCF-7 were purchased from American type culture collection (ATCC, USA). […] And all cell lines used in the experiment were tested for mycoplasma contamination every two weeks.
(§2) A549, OVCAR-3, HCT-116, and MCF-7 cells were seeded in 96-well plates, and then treated with target compounds for 72 h. Then, 20 µL MTT (5 mg/mL, in PBS) was added into each well, and dissolved in 150 µL DMSO after incubation for 4 h. Finally, the absorbance was measured with microplate reader (490 nm).

OVCAR-3 = assay: MTT assay, anti-proliferative effect on OVCAR-3 cells; type: cell-based, human; conditions: Homo sapiens, OVCAR-3, 72 h, read-out: IC50 OVCAR-3
Experimental: as §1, §2

HCT-116 = assay: MTT assay, anti-proliferative effect on HCT-116 cells; type: cell-based, human; conditions: Homo sapiens, HCT-116, 72 h, read-out: IC50 HCT-116
Experimental: as §1, §2

MCF-7 = assay: MTT assay, anti-proliferative effect on MCF-7 cells; type: cell-based, human; conditions: Homo sapiens, MCF7, 72 h, read-out: IC50 MCF-7
Experimental: as §1, §2

HPAEpiC = assay: Selectivity index (SI) versus HPAEpiC normal cells; type: cell-based; conditions: SI = CC50/IC50; Human normal alveolar epithelial cells; means ± SD
IOSE80 = assay: Selectivity index (SI) versus IOSE80 normal cells; type: cell-based; conditions: SI = CC50/IC50; Human normal ovarian epithelial cells; means ± SD
HIEC = assay: Selectivity index (SI) versus HIEC normal cells; type: cell-based; conditions: SI = CC50/IC50; Human normal intestinal epithelial cells; means ± SD
HTB-125 = assay: Selectivity index (SI) versus HTB-125 normal cells; type: cell-based; conditions: SI = CC50/IC50; Human normal breast cell; means ± SD
PARP-1 = biological target: T1, PARP-1 (Homo sapiens, UniProt P09874); assay: PARP-1 enzyme inhibition, colorimetric 96-well PARP assay kit; type: biochemical; conditions: in vitro enzyme, Mean ± SD
T1 construct: purchased BPS Bioscience, USA 80,580
Experimental: (§4) The PARP-1 and PARP-2 inhibition assays were performed by the colorimetric 96-well PARP assay kits provided by BPS Bioscience, USA.

PARP-2 = biological target: T2, PARP-2 (Homo sapiens, UniProt Q9UGN5); assay: PARP-2 enzyme inhibition, colorimetric 96-well PARP assay kit; type: biochemical; conditions: in vitro enzyme, Mean ± SD
T2 construct: purchased BPS Bioscience, USA 80,581
Experimental: as §4

A549 cells = assay: Annexin-V/PI apoptosis assay by flow cytometry; type: cell-based, human; conditions: 48 h, P < 0.001
Experimental: PARP-1 inhibitors have been reported to induce further apoptosis of cancer cells, which was also confirmed by our previous studies. An annexin-V/PI binding assay was conducted in A549 cells to evaluate the capacity of compound 11b to induce apoptosis in cancer cells. […] (Fig. 4).
A549 cells were cultured in 6-well plates (3.0 × 10^5/well), and treated with DMSO (1%) or compound 11b for 48 h. The cells were then collected, washed with PBS, and stained with FITC-Annexin-V and PI (Promega Corporation, USA). Finally, the apoptosis of A549 cells was detected by flow cytometry (Becton Dickinson and Company, USA; FACS Calibur).

PAR = assay: Western blot of PAR in A549 cells; type: cell-based, human; conditions: best effect at 4.0 µM, P < 0.001
Experimental: PARylation is a critical post-translational modification in which ADP-ribose units are added to a wide array of target proteins by PARP-1 [33–35]. PAR is the active product of PARP-1, and the biosynthesis of PAR will be reduced while PARP-1 is inhibited. Here, we used the western blot to evaluate PAR levels and PARP-1 expression.
(§3) The cells were plated in 6-well plates and incubated with different concentrations of compound 11b for a specified time. The cells were then collected, and tested using a standard western blot as described before.

[1] = tested on: Cleaved-Caspase 3 and Caspase 3; assay: Western blot of Caspase 3 and Cleaved-Caspase 3 in A549 cells; type: cell-based, human
Experimental: Meanwhile, we also detected the expression of Cleaved-Caspase 3 and Caspase 3 after different treatment concentrations to explore the mechanism of compound 11b inducing cell apoptosis.
as §3

T2 sequence (Q9UGN5 whole entry): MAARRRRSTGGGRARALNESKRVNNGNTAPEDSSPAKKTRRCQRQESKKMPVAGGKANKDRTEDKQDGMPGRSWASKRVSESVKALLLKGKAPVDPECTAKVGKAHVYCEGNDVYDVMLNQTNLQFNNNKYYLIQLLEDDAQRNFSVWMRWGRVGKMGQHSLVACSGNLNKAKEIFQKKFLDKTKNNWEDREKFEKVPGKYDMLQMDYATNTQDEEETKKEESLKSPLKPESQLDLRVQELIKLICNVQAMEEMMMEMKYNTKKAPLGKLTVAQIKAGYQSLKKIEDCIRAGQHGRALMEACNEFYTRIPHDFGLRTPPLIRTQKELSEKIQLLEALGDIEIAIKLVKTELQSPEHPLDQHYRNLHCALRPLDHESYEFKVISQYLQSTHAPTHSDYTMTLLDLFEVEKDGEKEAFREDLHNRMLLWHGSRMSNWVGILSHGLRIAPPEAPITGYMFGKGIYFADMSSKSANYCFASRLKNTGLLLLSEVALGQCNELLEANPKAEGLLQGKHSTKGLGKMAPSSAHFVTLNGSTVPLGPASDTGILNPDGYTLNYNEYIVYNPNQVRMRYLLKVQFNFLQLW
T1 sequence (P09874 whole entry): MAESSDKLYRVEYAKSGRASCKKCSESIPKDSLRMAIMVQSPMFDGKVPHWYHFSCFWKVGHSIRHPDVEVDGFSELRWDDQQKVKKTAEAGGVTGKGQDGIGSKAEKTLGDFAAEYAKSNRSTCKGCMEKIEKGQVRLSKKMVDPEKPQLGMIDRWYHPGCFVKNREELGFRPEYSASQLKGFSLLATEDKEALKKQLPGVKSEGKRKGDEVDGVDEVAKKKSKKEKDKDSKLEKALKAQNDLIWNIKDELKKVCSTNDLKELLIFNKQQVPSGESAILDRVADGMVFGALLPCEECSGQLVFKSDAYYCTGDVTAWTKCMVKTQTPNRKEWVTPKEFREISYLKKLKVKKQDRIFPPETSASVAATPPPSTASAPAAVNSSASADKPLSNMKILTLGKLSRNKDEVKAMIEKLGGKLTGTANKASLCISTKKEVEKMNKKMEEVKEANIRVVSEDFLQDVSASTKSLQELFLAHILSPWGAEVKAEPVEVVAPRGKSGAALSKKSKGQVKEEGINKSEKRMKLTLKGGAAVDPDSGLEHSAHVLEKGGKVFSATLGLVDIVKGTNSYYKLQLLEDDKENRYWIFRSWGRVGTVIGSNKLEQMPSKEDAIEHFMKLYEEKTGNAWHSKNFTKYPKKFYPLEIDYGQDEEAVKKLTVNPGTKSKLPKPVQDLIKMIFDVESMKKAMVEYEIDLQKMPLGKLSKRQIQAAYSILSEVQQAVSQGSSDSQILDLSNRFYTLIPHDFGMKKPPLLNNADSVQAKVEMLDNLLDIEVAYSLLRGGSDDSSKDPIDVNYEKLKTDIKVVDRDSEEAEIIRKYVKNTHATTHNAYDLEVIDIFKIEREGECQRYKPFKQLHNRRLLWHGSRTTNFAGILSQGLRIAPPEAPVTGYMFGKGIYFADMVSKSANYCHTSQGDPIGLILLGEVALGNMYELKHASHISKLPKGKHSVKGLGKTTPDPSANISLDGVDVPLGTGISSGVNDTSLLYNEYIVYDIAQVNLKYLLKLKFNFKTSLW

OC1CCN(Cc2cn(-c3ccccc3F)nn2)C2(CCCCC2)c2ccccc21 (centres unmarked) [Compound 11b, 2-((1-(2-fluorophenyl)-1 H-1,2,3-triazol-4-yl)methyl)-2,3,4,5-tetrahydrospiro[benzo[c]azepine-1,1’-cyclohexan]-5-ol]
IC50 (A549): 1950 ± 330 nM
IC50 (OVCAR-3): 4020 ± 240 nM
IC50 (HCT-116): 7450 ± 1980 nM
IC50 (MCF-7): 9210 ± 2540 nM
SI HPAEpiC (HPAEpiC): 15.38 and 15.38 ± 0.97
SI IOSE80 (IOSE80): 10.57 ± 2.01
SI HIEC (HIEC): 6.12 ± 1.76
SI HTB-125 (HTB-125): 7.06 ± 1.32
IC50 (PARP-1): 19.2 ± 1.63 nM
IC50 (PARP-2): 32.6 ± 1.97 nM
induction of apoptosis in A549 cells (A549 cells): induce apoptosis in a dose-dependent manner
biosynthesis of PAR (PAR): reduce the biosynthesis of PAR
expression of Caspase 3 [1]: decreased with the increase of compound 11b concentration
ratio of Cleaved-Caspase 3/Caspase 3 [1]: best at 4.0 µM
